Measured values: patent US20240166599A1, “INDOLE DERIVATIVES AS SEROTONERGIC AGENTS USEFUL FOR THE TREATMENT OF DISORDERS RELATED THERETO” (Mindset Pharma Inc., priority 2021, published 2024)

Tests used:
[1] = Liver microsomes stability, human; conditions: for Remaining Percentage (%) after 60 min, Human: human liver microsomes with NADPH, 2 μM; for half-life at 2 μM / microsomal CLint at 2 μM: human, microsomes
Protocol: (§1) The objective of this study was to estimate in vitro metabolic stability of representative compounds of the application in pooled human and male mouse liver microsomes. The concentrations of parent compounds in reaction systems were evaluated by LC-MS/MS for estimating the stability in pooled human and male mouse liver microsomes. The in vitro intrinsic clearances of test compounds were determined as well.
(§2) A master solution in the “Incubation Plate” containing phosphate buffer, ultra-pure H2O, MgCl2 solution and liver microsomes was made according to Table 3. The mixture was pre-warmed at 37° C. water bath for 5 minutes.
(§3) 40 μL of 10 mM NADPH solution was added to each well. The final concentration of NADPH was 1 mM. The negative control samples were prepared by replacing NADPH with 40 μL of ultra-pure H2O. Samples were prepared in duplicate. Negative controls were prepared in singlet.
(§4) The reaction was started with the addition of 4 μL of 200 μM test compounds or control compounds to each master solution to get the final concentration of 2 μM. This study was performed in duplicate.
(§5) Aliquots of 50 μL were taken from the reaction solution at 0, 15, 30, 45 and 60 minutes. The reaction solutions were stopped by the addition of 4 volumes of cold methanol with IS (100 nM alprazolam, 200 nM imipramine, 200 nM labetalol and 2 μM ketoprofen). Samples were centrifuged at 3,220 g for 40 minutes. Aliquot of 90 μL of the supernatant was mixed with 90 μL of ultra-pure H2O and then was used for LC-MS/MS analysis.
(§6) LC/MS analysis was performed for all samples from this study using a Shimadzu liquid chromatograph separation system equipped with degasser DGU-20A5R; solvent delivery unit LC-30AD; system controller SIL-30AC; column oven CTO-30A; CTC Analytics HTC PAL System. Mass spectrometric analysis was performed using an Triple Quad™ 5500 instrument.
(§7) All calculations were carried out using Microsoft Excel. Peak areas were determined from extracted ion chromatograms. The slope value, k, was determined by linear regression of the natural logarithm of the remaining percentage of the parent drug vs. incubation time curve.
(§8) The in vitro half-life (in vitro t1/2) was determined from the slope value:
(§9) Conversion of the in vitro t1/2 (min) into the in vitro intrinsic clearance (in vitro CLint, in μL/min/mg proteins) was done using the following equation (mean of duplicate determinations): […]

human 5-HT2A receptor = human 5-HT2A receptor (Homo sapiens, UniProt P28223); test: biochemical
Protocol: Human 5-HT2A: Radioligand Binding Assay:
II.3 Experiment Procedure: • i. Prepared the assay buffer following the table below;
• ii. Preparation of 8 doses of reference and test compounds starting from 10 mM stock solution as requested by 5-fold serial dilutions with 100%; • iii. Prepared (v/v) DMSO: a. 50 μl/well of 0.5% (v/v) PEI was added to UniFilter-96 GF/B plates. The plates were sealed and incubates at 4° C. for 3 hrs; b. After incubation, the plates were washed 3 times with ice-cold wash buffer (50 mM Tris, pH7.4); • iv. Preparation of assay plates: a. Cell membrane were diluted with assay buffer and 330 μl/well was added to 96 round deep well plates to reach a concentration of 20 μg/well; b. 8 concentrations of reference or test compounds were prepared and 110 μl/well was added to 96 round deep well plates; c. [3H]-ketanserin was diluted with assay buffer to 5 nM (5× final concentration) and 110 μl/well was added to 96 round deep well plates. • v. The plate was centrifuged at 1000 rpm for 30 secs and then agitated at 600 rpm, R.T. for 5 min. • vi. The plates were sealed and incubates at 27° C. for 90 min. • vii. The incubation was stopped by vacuum filtration onto GF/B filter plates followed by 4 times washing with ice-cold wash buffer (50 mM Tris, pH7.4). • viii. […] The filter plates were sealed and 40 μl/well of scintillation cocktail was added. • x. The plate was read by using a Microbeta2 microplate counter.
For reference and test compounds, the results are expressed as % Inhibition, using the normalization equation: N=100−100×(U−C2)/(C1−C2), where U is the unknown value, C1 is the average of high controls, and C2 is the average of low controls.

[2] = target: T1, human 5-HT2A (h5-HT2A) receptor (Homo sapiens, UniProt P28223); test: FLIPR assay, human 5-HT2A, agonist mode; type: cell-based
T1 construct: expressed in transfected cells
Protocol: I.c. Experimental Methods and Procedures: • 1. […] One day before the assays, the cells were detached using TrypLE™ Express and cells were counted using cell counter. […] 20000 cells/well were seeded in 30 μl/well culture medium to a 384-well cell plate and cells were incubated overnight at 37° C., 5% (v/v) CO2. • 4. On the assay day, 2×dye solution was prepared following the manual of the FLIPR® Calcium 6 Assay Kit: i. The dye was diluted with assay buffer (20 mM HEPES in 1×HBSS, PH7.4); ii. Probenecid was added to the final concentration of 5 mM; iii. […] Medium was removed from cell plate by flicking the cell plate on towel papers. • 6. […] The cell plate was placed on plate shaker, the plate was agitated at 600 rpm for 2 minutes. The plate was incubated at 37° C. for 2 hours followed by additional 15-minute incubation at 25° C. • 8. 3×compound in assay buffer was prepared: a. Reference compounds were diluted to required concentration with DMSO. The compounds were added to a 384-well compound plate; b. Serial dilutions were performed; c. 10 mM test compounds were added to the compound plate, and 3-fold serial dilutions were performed. d. […] Add 20 μl/well assay buffer to the compound plate; f. […] The cell plate, compound plate and tips were put into FLIPR, 10 μl of 3× compound was transferred to the cell plate per well with FLIPR.
• i. […] Calculated the percentage activation by using following equation: […]

[3] = Liver microsomes stability, mouse; conditions: for half-life at 2 μM / microsomal CLint at 2 μM: male, mouse, microsomes; for Remaining Percentage (%) after 60 min, Mouse: mouse liver microsomes with NADPH, 2 μM
Protocol: as §1, §2, §3, §4, §5, §6, §7, §8, §9

[4] = Liver microsomes stability, rat; conditions: for Remaining Percentage (%) after 60 min, Rat: rat liver microsomes with NADPH, 2 μM; for half-life at 2 μM / microsomal CLint at 2 μM: rat, microsomes

T1 sequence (P28223 whole entry): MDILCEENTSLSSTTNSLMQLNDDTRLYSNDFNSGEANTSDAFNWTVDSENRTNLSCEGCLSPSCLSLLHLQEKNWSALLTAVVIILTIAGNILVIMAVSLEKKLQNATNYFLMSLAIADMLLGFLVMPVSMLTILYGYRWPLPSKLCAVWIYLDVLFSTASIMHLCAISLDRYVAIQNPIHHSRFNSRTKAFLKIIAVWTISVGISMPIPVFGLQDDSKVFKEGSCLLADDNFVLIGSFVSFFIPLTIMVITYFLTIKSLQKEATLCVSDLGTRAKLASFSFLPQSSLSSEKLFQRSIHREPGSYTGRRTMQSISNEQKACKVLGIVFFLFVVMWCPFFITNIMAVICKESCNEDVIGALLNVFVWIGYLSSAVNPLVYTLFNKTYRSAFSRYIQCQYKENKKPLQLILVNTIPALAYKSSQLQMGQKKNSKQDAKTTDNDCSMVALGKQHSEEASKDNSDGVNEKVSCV
Sequence of human 5-HT2A receptor (P28223 whole entry): as above

Structure (SMILES)	Remaining Percentage (%) after 60 min, Human [1] [%]	half-life at 2 μM [1] [min]	microsomal CLint at 2 μM [1] [µL/min/mg]	IC50 (human 5-HT2A receptor) [nM]	EC50 [2] [nM]	half-life at 2 μM [3] [min]	microsomal CLint at 2 μM [3] [µL/min/mg]	Remaining Percentage (%) after 60 min, Mouse [3] [%]	Remaining Percentage (%) after 60 min, Rat [4] [%]	half-life at 2 μM [4] [min]	microsomal CLint at 2 μM [4] [µL/min/mg]
[2H]C([2H])([2H])N(C([2H])([2H])[2H])C([2H])([2H])C([2H])([2H])c1c[nH]c2ccccc12 [I-A-1, 2-(1H-indol-3-yl)-N,N-bis(methyl-d3)ethan-1-amine-1,1,2,2-d4]	0.46	7.73	19	< 500	< 1000	87.2	39.2	62.07	9.38	17.6	39.7
CN(C)CCc1c[nH]c2ccccc12 [DMT, N,N-dimethyltryptamine, reference compound]				< 500	< 1000						
[2H]c1[nH]c2c([2H])c([2H])c([2H])c([2H])c2c1CCN(C)C [I-A-2, 2-(1H-indol-3-yl-2,4,5,6,7-d5)-N,N-dimethylethan-1-amine]	0.76	8.52	18.8	< 500	< 1000	17.4	41.2	59.38	17.65	24	36
[2H]C([2H])([2H])Oc1ccc2[nH]cc(C([2H])([2H])C([2H])([2H])N(C([2H])([2H])[2H])C([2H])([2H])[2H])c2c1 [I-A-6, 2-(5-(methoxy-d3)-1H-indol-3-yl)-N,N-bis(methyl-d3)ethan-1-amine-1,1,2,2-d4]	15.50	2.3	16.4			97.5	36.8	65.29	5.25	9.88	9.26
